Measured values published in patent publication US8952025B2, “Multifunctional radical quenchers and their uses” (Arizona Board of Regents, A Body Corporate of the State of …, priority 2010, dated 2015).
Entries after “also recorded” stand apart in the source; their conditions may differ.

Tests used:
CEM cells [1] = assay: Trypan blue cell viability assay, DEM-treated cells; format: cell-based, human; details: for maintaining cell viability (trypan blue exclusion): overnight incubation, then 5 mM DEM, 3 h
Protocol: Cell viability determined by trypan blue exclusion assay: This technique was used to assess the cytoprotective effects of the invention compounds in cultured cells pharmacologically treated to induce cell death by GSH depletion. DEM was used to deplete cellular GSH and induce oxidative stress. The viability of DEM-treated CEM cells was determined by their ability to exclude the dye trypan blue. Viable cells exclude trypan blue; whereas, non-viable cells take up the dye and stain blue. Briefly, CEM cells were grown in RPMI 1640 medium (GIBCO, Grand island, N.Y., USA) supplemented with 10% fetal calf serum, 2 mM glutamine (HyClone, South Logan, Utah, USA), 1% penicillin-streptomycin mix (Cellgro, Manassan, Va., USA). Cells were seeded at a density of 1×10^6 cells/mL and treated with different concentrations of the invention compounds. Cells were incubated at 37° C. in a humidified atmosphere of 5% CO2 in air for three hours with 5 mM DEM. Cell viability was determined by staining cells with 0.4% trypan blue using a hemacytometer. At least 500 cells were counted for each experimental group. At the time of assay, >95% of DEM-treated cells were trypan blue positive; whereas, in non-DEM treated control cell cultures >95% cells were viable. Cell viability was expressed as the percentage of control. Data are expressed as means±S.E.M (n=3).

CEM leukemia cells [2] = assay: Mitochondrial membrane potential (Δψm) assay, TMRM, FACS; format: cell-based, human; details: pretreatment 0.5, 1 or 2.5 μM overnight, DEM
Protocol: Measurement of Mitochondrial Membrane Potential (Δψm)(FACS). For the determination of Δψm, CEM leukemia cells were pre-treated with or without the test compounds. The cells were treated with 5 mM DEM for 120 minutes, collected by centrifugation at 300×g for 3 minutes and then washed twice with phosphate buffered saline. The cells were re-suspended in HSSB buffer and incubated at 37° C. in the dark for 15 minutes with 250 nM TMRM (a cationic dye which accumulates within mitochondria in accordance with the Δψm Nernst potential). Cells were collected by centrifugation at 300×g for 3 minutes and then washed twice with phosphate buffered saline. The samples were analyzed immediately by flow cytometry using 488 nm excitation laser and the FL2-H channel. The results obtained were verified in three independent experiments. The protonophore FCCP (30 μM) was used to dissipate the chemiosmotic proton gradient (ΔμH^+) and served as a control for loss of Δψm. In each analysis, 10,000 events were recorded.

[3] = C11-BODIPY581/591 oxidation lipid peroxidation assay in liposomes; details: 10 mM AAPH, phospholipid liposomes, phosphate buffer, 40° C.
Protocol: To overcome the problem of spectral overlap using cis-parinaric acid, a fluorescence assay for lipid peroxidation using a lipophilic probe belonging to the BODIPY class of fluorescent dyes was used. C11-BODIPY^581/591 (4,4-difluoro-5(4-phenyl-1,3-butadienyl)-4-bora-3a,4a-diaza-s-indacene-3-propionic acid) fluorescence shifts from red to green upon oxidation. C11-BODIPY^581/591 (Molecular Probes, Eugene, Oreg., USA) stock solution concentrations were determined by measuring the absorption of C11-BODIPY^581/591 at 582 nm using a molar extinction coefficient of 140,000 mol^−1 cm^−1(R. P. Haugland, (1999) Handbook of Fluorescent Probes and Research Chemicals, Molecular Probes, Inc., Eugene, Oreg.). The lipid peroxidation inducer 2,2′-Azobis (2-amidino-propane dihydrochloride) (AAPH) and the antioxidant compound α-tocopherol were obtained from Sigma (St. Louis, Mo., USA). Phospholipid bilayers were prepared from 1-stearoyl-2-oleoyl-phosphatidylcholine (SOPC) and 1,2-dilinoleoyl-phosphatidylcholine (DLPC) and were purchased from Avanti® polar lipids, INC (Alabaster, Ala., USA).
Phosphotidylcholine (PC) liposomes were prepared as described before (Guey-Shuang et al. (1982) Lipids. 17, 403-413). Briefly, DLPC (25 mg) and SOPC (25 mg) were dissolved in chloroform and the solvent was removed by nitrogen evaporation (˜2 hours to give a thin film of PC in a round bottom flask. The lipid film was hydrated with 50 mL of 10 mM Tris-HCl (pH 7.4), 100 mM KCl, shaken and sonicated for 15 seconds. The liposomes obtained were filtered several times through 0.2 μM membrane filter.
C11 BODIPY^581/591 was incorporated into liposomes and oxidized by peroxyl radicals derived from the decomposition of AAPH in presence and absence of the compounds. […] Liposomes were pre-incubated for 10 min with 200 nM C11 BODIPY^581/591 to allow their incorporation into the lipid phase of the liposomes. After the addition of AAPH (10 mM) the decay of red fluorescence was followed at λ exc=570 nm, λ em=600 nm. Relative fluorescence units were normalized to 100% intensity. Results obtained were verified by repeating experiments N=3 independent experiments.

CEM cells [4] = assay: Reactive oxygen species (ROS) assay, DCFH-DA, DEM-treated cells; format: cell-based, human
Description: Cellular ROS production can be monitored using 2′,7′-dichlorodihydrofluorescein diacetate (DCFH-DA) (LeBel et al. (1992) Chem. Res. Toxicol. 5, 227-231) (Molecular Probes, Eugene, Oreg., USA), a membrane permeable and oxidant-sensitive fluorescent dye. DCFH-DA is a non-fluorescent derivative of fluorescein that emits fluorescence after being oxidized by hydrogen peroxide and other ROS. The emitted fluorescence is directly proportional to the concentration of hydrogen peroxide. DCFH-DA is nonionic and nonpolar and is easily taken up by cells. Once inside the cell, DCFH-DA is hydrolyzed by cellular esterases to non-fluorescent DCFH which traps the dye in the cell. In the presence of ROS including hydrogen peroxide, DCFH is oxidized to the highly fluorescent compound dichlorofluorescein (DCF). The intracellular DCF fluorescence is used as an index of cellular ROS production.
Cellular oxidative stress was induced by pharmacological depletion of glutathione (GSH) using the chemical diethylmaleate (DEM). ROS production was assessed by monitoring DCF fluorescence. Leukemic CEM cells (ATCC®, catalogue number CRL-2264) were cultured in RPMI (GIBCO, Grand island, N.Y., USA) with 10% FCS, 2 mM glutamine (HyClone, South Logan, Utah, USA) and 1% penicillin-streptomycin mix antibiotics (Cellgro, Manassan, Va., USA) supplements. Cells were maintained in the log phase at a concentration of between 1×10^5 and 1×10^6 cells/mL. CEM cells (1×10^6 cell/mL) were plated (1 mL) in twelve well plate and treated with the invention compounds (final concentration 1 and 5 μM), and incubated for two hours at 37° C., 5% CO2. The compounds tested were prepared by first making stock solutions (2.5 mM) in dimethylsulfoxide (DMSO). Cells were treated with 5 mM DEM for 30 minutes and collected by centrifugation at 300×g for 3 min and then washed twice with Hanks' Balanced Salt Solution (HSSB) buffer (Sigma, St. Louis, Mo. USA). Cells were resuspended in HSSB buffer+10 mM glucose and incubated at 37° C. in the dark for 20 min with 10 μM DCFH-DA. Cells were collected by centrifugation at 300×g for 3 min and then washed twice with HSSB buffer. The samples were analyzed immediately by flow cytometry (Becton-Dickinson FACS Caliber), (Cell Quest software, BD Biosciences) using 488 nm excitation laser and FL1-H channel 538 nm emission filter. In each analysis, 10,000 events were recorded after cell debris were electronically gated out. Results obtained were verified by repeating experiments N=3 independent experiments. Authentic hydrogen peroxide was used as a positive control.

cytochrome c = assay: Cytochrome c reduction assay; format: biochemical; details: 100 μM compound, 10 μM cytochrome c, absorbance 550 nm
Protocol: The rate of cytochrome c (10 μM) reduction was measured by monitoring the change in absorbance at 550 nm. Briefly the reaction was initiated by addition of 100 μM of the invention compounds to a mixture containing 50 mM phosphate buffer, 0.1 mM EDTA, pH 7.8, and 10 μM cytochrome c (Sigma, St. Louis, Mo. USA). For cytochrome c reduction by superoxide, xanthine oxidase (0.01 IU/mL) (Sigma, St. Louis, Mo. USA) was used in presence of xanthine (50 μM).

[5] = James et al. (2005); cited from earlier work
CEM leukemia cells [6] = assay: C11-BODIPY581/591 oxidation in cell culture (lipid peroxidation); format: cell-based, human; details: 2.5 or 1 μM, pretreatment 4 or 24 hours, glutathione depleted
Protocol: Lipid peroxidation in CEM leukemia cells was detected by utilizing the oxidant-sensitive lipophilic probe C11 BODIPY^581/591. Briefly, CEM cells (5×10^5 cell/mL) were treated with the test compounds at final concentrations of 1 and 2.5 μM, and incubated at 37° C. for 4 or 24 h in a humidified atmosphere containing 5% CO2 in air. Cells were treated with 500 nM C11 BODIPY^581/591 in phenol red-free RPMI-1640 media and incubated at 37° C. in the dark for 30 minutes. The cells were washed twice with phosphate buffered saline and oxidative stress was induced with 5 mM DEM in phenol red-free RPMI-1640 media for 90 minutes. Treated cells were collected by centrifugation at 300×g for 3 minutes and then washed twice with phosphate buffered saline. Cells were resuspended in 250 μL of phosphate buffered saline and were analyzed by FACS (FACS Calibur flow cytometer, Becton Dickinson) to monitor the change in intensity of the C11 BODIPY^581/591-green (oxidized) fluorescence signal.

Human CEM leukemia cells = assay: Live/Dead Viability/Cytotoxicity flow cytometry assay; format: cell-based; details: overnight incubation, then DEM 3 hours
Protocol: Cell viability and cytotoxicity were determined by simultaneous staining live and dead cells using a two-color fluorescence assay, the Live/Dead® Viability/Cytotoxicity Kit (Molecular Probes). This assay is used to measure two recognized parameters of cell viability, intracellular esterase activity and plasma integrity. The membrane-impermeant DNA dye ethidium homodimer-1 (EthD-1) was used to identify dead cells whose plasma membrane integrity was disrupted. The membrane-permeant dye calcein-AM was used to label live cells. It penetrates into the cells where it is metabolized by cytoplasmic esterases and becomes a fluorescent but membrane-impermeant probe which is retained in viable cells. Human CEM leukemia cells were incubated overnight in RPMI medium (control) and in the presence of test compound and then treated with DEM for 3 hours. Cells were stained with 0.2 μM calcein-AM and 0.4 μM EthD-1. After 15 minutes, flow cytometry analysis was carried out using excitation at 488 nm. The green-fluorescent (539 nm) FL1-H channel, live-cell population appears in the lower right quadrant and the red-fluorescent (585 nm) FL2-H channel dead-cell population appears in the upper left quadrant (FIG. 11). In each analysis, 10,000 events were recorded. Results obtained were verified in three independent experiments.

**Q.** Which EC50 (CEM cells [1]; Homo sapiens, CCRF-CEM, CEM cells, pre-treatment 2 h, diethylmaleate 3 h, trypan blue exclusion, read-out: EC50 (effective concentration that prevents 50% of cell death)) does the source give for `Cc1cc(N(C)C)nc(CCCCCCCCCCO)c1O` [Compound B, 2-N,N-dimethylamino-5-hydroxy-4-methyl-6-(10-hydroxydecyl)-pyridine] here?
**A.** The EC50 was 300 ± 22 nM.

**Q.** And the “maintaining cell viability (trypan blue exclusion)” value (CEM cells [1])?
**A.** Its value is “quite effective in maintaining cell viability following DEM treatment; also recorded: superior to idebenone in maintaining the viability of DEM-treated cells”.

**Q.** What about the “maintaining mitochondrial membrane potential Δψm” value (CEM leukemia cells [2]) of the same molecule?
**A.** Its value is “clearly more effective in maintaining mitochondrial membrane potential; also recorded: very favorable properties”.

**Q.** And the “quenching of lipid peroxidation (retention of C11-BODIPY581/591 fluorescence)” value [3]?
**A.** The value was “about as effective as C”.

**Q.** What about the “protection against ROS production (DCF fluorescence)” value (CEM cells [4]; compound 1 μM, 5 mM DEM) of the same molecule?
**A.** The value was “less effective at this concentration”.

**Q.** And the “protection against ROS production (DCF fluorescence)” value (CEM cells [4]; compound 5 μM, 5 mM DEM)?
**A.** Its value is “significantly more effective in blocking diethylmaleate-induced ROS production compared to idebenone or its reduced form (Idebenol); also recorded: protected the cells”.

**Q.** And the “suppression of ROS production (DCF fluorescence)” value (CEM cells [4]; pretreatment 0.5, 1 or 5 μM, DEM)?
**A.** Its value is “more effective than idebenone at all tested concentrations; also recorded: more effective than idebenone in suppressing ROS in a dose-dependent fashion”.

**Q.** And the “reduction of cytochrome c” value (cytochrome c)?
**A.** The value was “clearly reduce cytochrome c”.

**Q.** Which “calculated octanol-water partition coefficient” value [5] does the source give for `COC1=C(OC)C(=O)C(C/C=C(\C)CC/C=C(\C)CC/C=C(\C)CC/C=C(\C)CC/C=C(\C)CC/C=C(\C)CC/C=C(\C)CC/C=C(\C)CC/C=C(\C)CCC=C(C)C)=C(C)C1=O` [coenzyme Q10] here?
**A.** The value was > 10^20.

**Q.** Which results are given for `Cc1nc2c(c(C)c1O)CCN2C` [compound C redox core, 1,4,6-trimethyl-2,3-dihydro-1H-pyrrolo[2,3-b]pyridin-5-ol, reference compound]?
**A.** maintaining cell viability (trypan blue exclusion) (CEM cells [1]): quite ineffective; protection against lipid peroxidation in cells (C11-BODIPY581/591 green fluorescence) (CEM leukemia cells [6]): no protection; maintaining cell viability (Live/Dead kit, flow cytometry) (Human CEM leukemia cells): quite ineffective; quenching of lipid peroxidation (retention of C11-BODIPY581/591 fluorescence) ([3]; listed as 1,4,6-trimethyl-2,3-dihydro-1H-pyrrolo[2,3-b]pyridin-5-ol): much less effective in the same assay system; quenching of lipid peroxidation (retention of C11-BODIPY581/591 fluorescence) ([3]; listed as Compound C redox core): less effective than compound C itself; protection against ROS production (DCF fluorescence) (CEM cells [4]; 5 μM, pretreatment 4 or 24 h): no protection
